The target in experiment [1] is T1, Protein arginine N-methyltransferase 7 (Homo sapiens, UniProt Q9NVM4).
T1 sequence (Q9NVM4 whole entry): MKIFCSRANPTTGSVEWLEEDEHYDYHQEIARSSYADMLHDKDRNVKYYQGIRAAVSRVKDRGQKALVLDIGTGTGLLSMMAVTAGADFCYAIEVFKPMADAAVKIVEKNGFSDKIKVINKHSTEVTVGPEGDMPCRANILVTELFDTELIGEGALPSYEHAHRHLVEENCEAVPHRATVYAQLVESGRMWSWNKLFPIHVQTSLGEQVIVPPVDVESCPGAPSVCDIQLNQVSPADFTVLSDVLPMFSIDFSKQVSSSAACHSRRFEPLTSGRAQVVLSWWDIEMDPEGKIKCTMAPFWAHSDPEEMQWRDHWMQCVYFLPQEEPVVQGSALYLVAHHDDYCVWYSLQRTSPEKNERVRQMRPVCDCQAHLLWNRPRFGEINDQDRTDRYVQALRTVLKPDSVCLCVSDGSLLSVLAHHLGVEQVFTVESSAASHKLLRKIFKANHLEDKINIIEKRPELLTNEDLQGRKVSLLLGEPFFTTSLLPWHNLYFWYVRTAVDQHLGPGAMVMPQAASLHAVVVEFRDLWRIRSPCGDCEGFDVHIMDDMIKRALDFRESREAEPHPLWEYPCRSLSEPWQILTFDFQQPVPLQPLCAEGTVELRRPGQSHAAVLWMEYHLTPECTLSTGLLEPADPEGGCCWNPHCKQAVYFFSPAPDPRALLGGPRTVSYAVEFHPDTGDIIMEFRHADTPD
Description: Inhibition of PRMT7 (unknown origin) using [3H]-SAM as co-factor by scintillation proximity assay.

For experiment [2], the target named is T2, RNA 5'-monophosphate methyltransferase (Homo sapiens, UniProt Q7Z5W3).
T2 sequence (Q7Z5W3 whole entry): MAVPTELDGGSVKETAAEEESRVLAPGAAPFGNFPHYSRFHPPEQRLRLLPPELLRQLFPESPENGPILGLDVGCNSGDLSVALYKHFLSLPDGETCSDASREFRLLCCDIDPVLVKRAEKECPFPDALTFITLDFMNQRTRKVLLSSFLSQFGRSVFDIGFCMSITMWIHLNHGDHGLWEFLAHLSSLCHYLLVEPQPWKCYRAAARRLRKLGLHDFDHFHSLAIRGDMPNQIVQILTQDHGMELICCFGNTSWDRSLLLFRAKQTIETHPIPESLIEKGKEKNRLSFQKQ
Description: Inhibition of BCDIN3D (unknown origin) using [3H]-SAM as co-factor by scintillation proximity assay.

Experiment [3] concerns the target T3, Nicotinamide N-methyltransferase (Homo sapiens) (UniProt P40261).
T3 sequence (whole entry): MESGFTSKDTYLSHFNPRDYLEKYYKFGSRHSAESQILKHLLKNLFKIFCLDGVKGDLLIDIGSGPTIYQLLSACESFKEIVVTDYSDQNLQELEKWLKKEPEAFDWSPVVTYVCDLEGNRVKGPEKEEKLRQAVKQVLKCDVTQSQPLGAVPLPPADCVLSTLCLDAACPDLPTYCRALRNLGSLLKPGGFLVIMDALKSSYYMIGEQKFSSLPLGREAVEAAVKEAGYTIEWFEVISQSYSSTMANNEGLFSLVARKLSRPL
Description: Binding affinity to human NNMT (1 to 264 residues) expressed in Escherichia coli BL21 (DE3) assessed as change in enthalpy by isothermal titration calorimetric method

Experiment [4] has as its target T3, Nicotinamide N-methyltransferase (Homo sapiens). Description: Competitive inhibition of human NNMT (1 to 264 residues) expressed in Escherichia coli BL21 (DE3) at 1 to 250 uM measured for 20 mins in presence of varying concentration of SAM by Lineweaver-Burk plot analysis.
For experiment [5] the target is unchanged. The experiment is described as follows: Nonompetitive inhibition of human NNMT (1 to 264 residues) expressed in Escherichia coli BL21 (DE3) at 1 to 250 uM measured for 20 mins in presence of varying concentration of nicotinamide by Lineweaver-Burk plot analysis.
The target in experiment [6] is T4, Nicotinamide N-methyltransferase (Homo sapiens, UniProt P40261).
T4 sequence (P40261 whole entry): T3 sequence (whole entry)
Description: Binding affinity to human NNMT (1 to 264 residues) expressed in Escherichia coli BL21 (DE3) by isothermal titration calorimetric method.

Experiment [7] addresses Histone-lysine N-methyltransferase, H3 lysine-79 specific (Homo sapiens, UniProt Q8TEK3). Description: Inhibition of DOT1L (unknown origin) after 1 hr by filter-based assay.
The target in experiment [8] is T3, Nicotinamide N-methyltransferase (Homo sapiens). This is another data set of the same source.
Description: Binding affinity to human NNMT (1 to 264 residues) expressed in Escherichia coli BL21 (DE3) assessed as change in entropy by isothermal titration calorimetric method
The target of experiment [9] is T4, Nicotinamide N-methyltransferase. Description: Inhibition of human NNMT (1 to 264 residues) expressed in Escherichia coli BL21 (DE3) using nicotinamide/SAM as substrate/co-factor measured for 20 mins by SAHH-coupled fluorescent assay.
The target in experiment [10] is N-lysine methyltransferase SMYD2 (Homo sapiens, UniProt Q9NRG4). The experiment is described as follows: Inhibition of SMYD2 (unknown origin) using [3H]-SAM as co-factor by scintillation proximity assay.
Sequence of N-lysine methyltransferase SMYD2 (Q9NRG4 whole entry): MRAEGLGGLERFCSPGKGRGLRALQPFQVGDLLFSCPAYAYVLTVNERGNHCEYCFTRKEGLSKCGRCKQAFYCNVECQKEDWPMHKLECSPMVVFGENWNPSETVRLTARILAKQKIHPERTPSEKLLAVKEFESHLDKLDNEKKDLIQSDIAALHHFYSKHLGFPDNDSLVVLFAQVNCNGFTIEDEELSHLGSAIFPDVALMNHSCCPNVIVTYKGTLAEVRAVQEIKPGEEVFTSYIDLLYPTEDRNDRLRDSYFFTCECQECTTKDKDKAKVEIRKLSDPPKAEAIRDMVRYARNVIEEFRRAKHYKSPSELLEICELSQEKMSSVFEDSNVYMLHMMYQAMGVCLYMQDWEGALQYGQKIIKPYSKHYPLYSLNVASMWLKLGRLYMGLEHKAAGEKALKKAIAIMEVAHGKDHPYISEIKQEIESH

SMILES strings stand for the structures. Active and inactive are the calls of the source. No cut-off for these calls is given here.

Sequence of Histone-lysine N-methyltransferase, H3 lysine-79 specific (Q8TEK3 whole entry): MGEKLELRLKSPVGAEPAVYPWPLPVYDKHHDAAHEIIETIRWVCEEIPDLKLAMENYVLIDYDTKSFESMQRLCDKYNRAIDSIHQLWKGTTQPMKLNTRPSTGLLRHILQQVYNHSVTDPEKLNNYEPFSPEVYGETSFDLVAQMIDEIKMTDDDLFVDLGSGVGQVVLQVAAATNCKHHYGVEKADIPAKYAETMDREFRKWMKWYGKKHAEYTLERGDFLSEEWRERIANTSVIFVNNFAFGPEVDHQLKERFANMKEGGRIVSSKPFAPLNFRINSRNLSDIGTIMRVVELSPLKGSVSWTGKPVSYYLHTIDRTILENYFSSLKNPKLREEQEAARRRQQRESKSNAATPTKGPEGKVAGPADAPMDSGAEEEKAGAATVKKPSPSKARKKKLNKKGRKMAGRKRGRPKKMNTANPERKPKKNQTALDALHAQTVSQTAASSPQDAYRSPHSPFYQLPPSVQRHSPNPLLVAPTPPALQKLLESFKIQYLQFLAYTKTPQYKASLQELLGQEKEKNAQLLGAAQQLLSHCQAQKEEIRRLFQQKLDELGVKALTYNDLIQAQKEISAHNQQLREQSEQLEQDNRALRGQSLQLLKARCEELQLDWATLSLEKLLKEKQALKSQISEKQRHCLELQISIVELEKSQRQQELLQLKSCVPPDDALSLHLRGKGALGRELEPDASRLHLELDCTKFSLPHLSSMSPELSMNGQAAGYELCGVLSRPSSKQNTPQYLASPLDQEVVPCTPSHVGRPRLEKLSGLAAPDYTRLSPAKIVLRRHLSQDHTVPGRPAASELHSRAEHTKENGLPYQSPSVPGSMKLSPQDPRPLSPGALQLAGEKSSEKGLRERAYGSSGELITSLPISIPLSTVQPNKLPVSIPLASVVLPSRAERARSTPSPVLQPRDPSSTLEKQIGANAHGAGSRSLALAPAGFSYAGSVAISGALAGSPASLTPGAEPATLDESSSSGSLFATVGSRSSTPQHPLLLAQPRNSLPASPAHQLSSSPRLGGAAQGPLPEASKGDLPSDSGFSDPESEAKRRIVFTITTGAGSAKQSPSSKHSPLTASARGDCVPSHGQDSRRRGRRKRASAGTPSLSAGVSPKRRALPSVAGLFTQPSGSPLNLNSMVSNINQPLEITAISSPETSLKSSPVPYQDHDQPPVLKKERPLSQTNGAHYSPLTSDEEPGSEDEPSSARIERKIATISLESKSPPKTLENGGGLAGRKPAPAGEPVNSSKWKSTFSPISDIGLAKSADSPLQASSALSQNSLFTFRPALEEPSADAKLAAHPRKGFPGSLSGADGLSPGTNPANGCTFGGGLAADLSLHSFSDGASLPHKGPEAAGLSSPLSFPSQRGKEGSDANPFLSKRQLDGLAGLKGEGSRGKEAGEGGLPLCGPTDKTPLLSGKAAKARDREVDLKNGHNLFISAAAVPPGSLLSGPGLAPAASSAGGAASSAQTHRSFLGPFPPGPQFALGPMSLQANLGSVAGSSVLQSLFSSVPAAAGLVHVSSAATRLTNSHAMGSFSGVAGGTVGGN

Take `NC(=O)c1cccc(CCN(CCC[C@H](N)C(=O)O)C[C@H]2O[C@@H](n3cnc4c(N)ncnc43)[C@H](O)[C@@H]2O)c1`: the IC50 in [1] was found to be 20 µM; in [2] it was 40 µM; in experiment [7] it was 1.3 µM; in experiment [9], 14 µM; in experiment [10] it was 62 µM. This compound came in with a deltaH in experiment [3] of -4.6 kcal/mol. Moreover, the inhibition entry in experiment [4] and in experiment [5] was “Active” throughout. This compound showed a Kd in experiment [6] of 2.7 µM. In addition, the deltaS in experiment [8] is 10 cal/mol/deg.
In the case of `NC(=O)c1cccc(CCN(CC[C@H](N)C(=O)O)C[C@H]2O[C@@H](n3cnc4c(N)ncnc43)[C@H](O)[C@@H]2O)c1`, the deltaH in experiment [3] is -2.5 kcal/mol. The compound further yielded a Kd in experiment [6] of 42.8 µM. Further, the deltaS in experiment [8] was found to be 11.4 cal/mol/deg. The compound also came in with an IC50 in experiment [9] of 160 µM.

Values taken from ChEMBL document CHEMBL4024794 (J Med Chem, 2018).
